Test results as given in patent US9636311B2, “N,N′-di-1 naphthylguanidine HCl (NAGH) and N,N′-di-p-nitrophenylguanidine HCl (NAD) treatment for stroke at delayed timepoints” (University of South Florida, priority 2012, dated 2017).

Tested on: rats following MCAO
Experiment: Brain infarction quantification (Nissl thionin) after MCAO
Assay type: in vivo, rat
Conditions: s.c. daily for 3 days from 24 h post-MCAO (NAGH 0.86 mg/kg, NAD 2.8 mg/kg); 30 days post MCAO; mean±SEM
Description: All animal procedures were performed according to the University of South Florida guidelines for the care and use of animals and protocols were reviewed and approved by the Institutional Animal Care and Use Committee and adhered to the NIH guidelines for the care and use of animals. Adult male Sprague Dawley rats (Harlan) weighing about 250-300 g at the time of surgery were used for the study. All animals were housed two per cage in a temperature controlled room, under a 12 hour light-dark cycle, and given access to water and food ad libitum. Animals were monitored daily for wellness and biweekly for weight loss. For the NAGH studies, a total of 84 animals were randomly assigned to 2 groups: MCAO only (n=42) and rat treated with NAGH (n=42) beginning 24 hour after MCAO.
MCAO surgeries were performed as described elsewhere (Vendrame M, Cassady C J, Newcomb J, Butler T, Pennypacker K R, Zigova T, et al. Stroke. 2004; 35:2390-2395). Briefly, rats were anesthetized with isoflurane, and the right common carotid and external carotid arteries were exposed using blunt dissection techniques. The vagus nerve was separated from common carotid artery and the external carotid artery was ligated proximally, and transected near the bifurcation. An embolus 40 mm in length (4.0 siliconized monofilament) was inserted into the external carotid artery and fed distally into the origin of the middle cerebral artery (˜25 mm from insertion) through the internal carotid artery. Blood samples were taken and analyzed using an i-STAT handheld analyzer for hemoglobin, hematocrit, ionized calcium, glucose, sodium, potassium, pH, pCO2, HCO3, TCO2, base excess, pO2, and O2. Cerebral blood flow was recorded using a Laser Doppler Monitor (Moor Instruments) to verify occlusion. Afterwards, the embolus was ligated permanently into the vessel and the neck incision was closed. Animals were treated with Ketoprofen IM (10 mg/kg) for three days post-surgery.
For the NAGH studies, vehicle or NAGH were prepared fresh each day. Daily subcutaneous injections (s.c) were administered beginning about 24 hours after MCAO and continued daily to about 72 hours post-surgery (FIG. 1). Animals received a total of 3 injections. A total of 84 animals were randomly assigned into 2 groups: Rats treated with vehicle (40% DMSO in sterile saline, n=42), or rats treated with 0.86 mg/kg NAGH (n=42).
For the studies with other compounds based on the structure of DTG, twenty-four hours after MCAO, the rats began a sigma agonist treatment regimen. Vehicle or drug was prepared fresh each day. […]
Infarct size was determined by Nissl thionin staining. […]

Q: How did the “Infarct volume (percent of hemisphere)” value turn out when Cl.N=C(Nc1cccc2ccccc12)Nc1cccc2ccccc12 [NAGH, N,N′-di-1-Naphthylguanidine hydrochloride] was run?
A: The value was 13.58±2.3%.
